Measured values taken from PMC5216056 (Nature Communications, 2017).
“And” between values parts separate entries of the source, which are not always exact repeats. Identical values can stand only once. Like-named read-outs stand apart in the source and are kept apart here.

Legend:
[1] = target: T1, hCB2R (Homo sapiens, UniProt P34972); assay: cell-based; type: cell-based; parameters: expressed in transfected cells; host or cells: Flp-In-293 (Invitrogen #R750-07), pcDNA5/FRT; conditions: for Emax: read-out: Emax ± SEM pERK hCB2R
T1 sequence (P34972 whole entry): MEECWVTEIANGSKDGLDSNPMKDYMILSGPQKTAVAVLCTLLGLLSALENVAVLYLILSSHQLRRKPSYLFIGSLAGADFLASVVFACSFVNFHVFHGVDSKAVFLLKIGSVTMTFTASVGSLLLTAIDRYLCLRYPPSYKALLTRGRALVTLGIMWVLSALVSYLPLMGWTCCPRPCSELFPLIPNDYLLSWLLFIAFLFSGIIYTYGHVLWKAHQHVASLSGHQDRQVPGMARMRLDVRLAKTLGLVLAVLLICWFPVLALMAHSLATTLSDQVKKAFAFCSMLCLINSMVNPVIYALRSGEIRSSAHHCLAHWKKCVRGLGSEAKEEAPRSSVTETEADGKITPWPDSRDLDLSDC

[2] = tested on: AEA reuptake in HaCaT cells; assay: cells; type: cell-based, human; conditions: for AEA reuptake Efficacy (% inhibition) HaCaT cells: from dose-response; for IC50: read-out: AEA reuptake IC50 (95% CI) HaCaT cells; for inhibition at 10 µM: read-out: AEA reuptake % inhibition, effect at 10 µM, HaCaT cells; for inhibition at 10 µM / AEA reuptake % inhibition, effect at 10 µM, HaCaT cells: 10 µM (values marked *)
[3] = target: T2, hDAGL-α (Homo sapiens, UniProt Q9Y4D2); assay: Biochemical DAGLα activity assay; conditions: for inhibition at 10 µM: read-out: DAGL % inhibition at 10 µM ± SD
T2 construct: expressed in transfected cells; host or cells: HEK293T (transient), membrane preparation
T2 sequence (Q9Y4D2 1-1042): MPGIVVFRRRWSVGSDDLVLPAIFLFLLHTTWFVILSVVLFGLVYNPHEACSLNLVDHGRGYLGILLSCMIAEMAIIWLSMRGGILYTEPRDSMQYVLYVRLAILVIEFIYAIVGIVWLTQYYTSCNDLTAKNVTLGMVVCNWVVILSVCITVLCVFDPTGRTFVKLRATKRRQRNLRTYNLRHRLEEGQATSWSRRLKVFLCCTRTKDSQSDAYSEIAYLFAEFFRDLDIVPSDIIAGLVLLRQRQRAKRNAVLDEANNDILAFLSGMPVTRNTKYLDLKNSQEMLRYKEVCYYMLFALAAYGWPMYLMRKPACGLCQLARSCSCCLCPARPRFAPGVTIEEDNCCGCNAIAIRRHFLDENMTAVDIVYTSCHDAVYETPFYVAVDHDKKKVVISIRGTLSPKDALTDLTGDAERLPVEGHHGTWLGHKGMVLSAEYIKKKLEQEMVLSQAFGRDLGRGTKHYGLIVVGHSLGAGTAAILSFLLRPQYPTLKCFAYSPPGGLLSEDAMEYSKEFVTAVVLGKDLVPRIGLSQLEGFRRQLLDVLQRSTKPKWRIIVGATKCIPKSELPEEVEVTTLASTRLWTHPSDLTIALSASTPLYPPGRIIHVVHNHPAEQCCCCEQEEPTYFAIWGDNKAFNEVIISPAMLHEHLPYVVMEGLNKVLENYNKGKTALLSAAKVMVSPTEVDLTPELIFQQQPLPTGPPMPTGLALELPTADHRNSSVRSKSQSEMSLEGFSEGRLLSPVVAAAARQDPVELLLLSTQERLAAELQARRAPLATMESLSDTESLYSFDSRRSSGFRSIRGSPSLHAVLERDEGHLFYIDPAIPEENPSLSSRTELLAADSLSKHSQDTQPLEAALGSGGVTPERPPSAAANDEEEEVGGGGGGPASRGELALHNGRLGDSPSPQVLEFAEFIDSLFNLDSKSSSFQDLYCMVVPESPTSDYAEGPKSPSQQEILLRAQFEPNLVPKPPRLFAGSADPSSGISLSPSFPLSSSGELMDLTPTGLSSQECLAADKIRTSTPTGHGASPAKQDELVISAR
Method: Cell culture and membrane preparation were performed as previously described. HEK293T cells (source: Dutch Cancer Institute) were grown in DMEM with stable glutamine and phenolred (PAA), 10% New Born Calf serum, penicillin and streptomycin. Cells were passaged every 2–3 days by resuspending in medium and seeding them to appropriate confluence. Membranes were prepared from transiently transfected HEK293T cells. One day prior to transfection 10^7 cells were seeded in a 15 cm petri dish. Cells were transfected by the addition of a 3:1 mixture of polyethyleneimine (60 μg) and plasmid DNA (20 μg) in 2 ml serum-free medium. The medium was refreshed after 24 h, and after 72 h the cells were harvested by suspending them in 20 ml medium. The suspension was centrifuged for 10 min at 1000, rpm, and the supernatant was removed. The cell pellet was stored at −80 °C until use. Cell pellets were thawed on ice and suspended in lysis buffer A (20 mM HEPES, 2 mM DTT, 0.25 M sucrose, 1 mM MgCl2, […] Benzonase). The suspension was homogenized by polytrone (3 × 7 s) and incubated for 30 min on ice. The suspension was subjected to ultracentrifugation (100,000 × g, 30 min, 4 °C, Beckman Coulter, Type Ti70 rotor) to yield the cytosolic fraction in the supernatant and the membrane fraction as a pellet. The pellet was resuspended in lysis buffer B (20 mM HEPES, 2 mM DTT). The protein concentration was determined with Quick Start Bradford assay (Biorad). The protein fractions were diluted to a total protein concentration of 1 mg ml^−1 and stored in small aliquots at −80 °C until use.
hDAGL-α activity was measured by the extent of the hydrolysis of para-nitrophenylbutyrate (PNP-butyrate) by membrane preparations from HEK293T cells (source: Dutch Cancer Institute) transiently transfected with hDAGL-α (ref. [43]). Percentage of inhibition of reference ligands was determined in comparison with an untreated control. Reactions were performed in 50 mM pH 7.2 HEPES buffer with 0.05 μg μl^−1 final protein concentration hDAGL-α transfected protein.

[4] = target: T1, hCB2R; assay: cell-based; type: cell-based; parameters: expressed in transfected cells; host or cells: Flp-In-293 (Invitrogen #R750-07), pcDNA5/FRT; conditions: for Emax: read-out: Emax ± SEM cAMP hCB2R
[5] = target: mCB2R (Mus musculus, UniProt P47936); assay: biochemical; type: binding; parameters: from tissue; host or cells: spleen of male C57BL/6J mice
mCB2R, sequence (P47936 whole entry): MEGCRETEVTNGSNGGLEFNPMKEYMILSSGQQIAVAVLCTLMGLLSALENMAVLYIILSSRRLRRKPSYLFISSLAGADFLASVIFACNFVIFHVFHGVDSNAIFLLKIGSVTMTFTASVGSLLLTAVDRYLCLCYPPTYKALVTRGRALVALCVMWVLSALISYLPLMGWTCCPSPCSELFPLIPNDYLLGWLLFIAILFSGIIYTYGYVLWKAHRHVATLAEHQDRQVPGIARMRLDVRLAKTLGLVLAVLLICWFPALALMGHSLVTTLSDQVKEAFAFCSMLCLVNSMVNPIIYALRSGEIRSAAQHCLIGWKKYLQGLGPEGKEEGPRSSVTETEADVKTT

[6] = target: T3, 5-HT2B (h) (Homo sapiens, UniProt P41595); assay: CEREP panel; type: binding; conditions: for inhibition at 10 µM: read-out: % inhibition 5-HT2B (h)
T3 construct: CEREP (contract assay)
T3 sequence (P41595 whole entry): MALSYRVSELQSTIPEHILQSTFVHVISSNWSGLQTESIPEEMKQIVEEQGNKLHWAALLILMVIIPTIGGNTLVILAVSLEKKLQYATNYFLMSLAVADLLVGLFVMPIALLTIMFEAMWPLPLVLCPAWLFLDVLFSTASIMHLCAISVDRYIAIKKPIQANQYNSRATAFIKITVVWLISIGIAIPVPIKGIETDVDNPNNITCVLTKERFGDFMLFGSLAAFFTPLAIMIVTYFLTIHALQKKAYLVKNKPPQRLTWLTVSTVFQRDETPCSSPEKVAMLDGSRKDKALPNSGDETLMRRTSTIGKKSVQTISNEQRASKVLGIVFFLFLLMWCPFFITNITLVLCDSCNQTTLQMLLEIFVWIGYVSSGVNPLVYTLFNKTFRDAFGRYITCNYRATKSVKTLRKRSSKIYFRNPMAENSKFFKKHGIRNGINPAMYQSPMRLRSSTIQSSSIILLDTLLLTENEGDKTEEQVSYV

[7] = mouse spleen membranes, read-out: pKi ± SEM mCB2R (converted)
[8] = antagonists in presence of EC80 of CP55940

| Molecule | Emax ± SEM pERK hCB2R [1] | pEC50 ± SEM pERK hCB2R [1] | AEA reuptake Efficacy (% inhibition) HaCaT cells [2] | IC50 [2] | DAGL % inhibition at 10 µM ± SD [3] | Emax ± SEM cAMP hCB2R [4] | pEC50 ± SEM cAMP hCB2R [4] | pKi ± SEM mCB2R ([5]; mouse spleen membranes) | inhibition at 10 µM [3] | AEA reuptake % inhibition, effect at 10 µM, HaCaT cells [2] | % inhibition 5-HT2B (h) ([6]; 10 µM) | further results |
| --- | --- | --- | --- | --- | --- | --- | --- | --- | --- | --- | --- | --- |
| CN1CCCCC1Cn1cc(C(=O)c2cc([N+](=O)[O-])ccc2I)c2ccccc21 (racemic) [(rac)-AM1241] | 32 ± 12 | 7.6 ± 0.88 | 80% | 4.01 µM | 3 ± 10% | 67 ± 3 | 8.49± 0.08 | 7.73 ± 0.25 |  |  |  | CB2R Selectivity pERK [1]: 339; CB2R Selectivity (binding, mouse) [5]: 66 fold |
| CCCCC/C=C\C/C=C\C/C=C\C/C=C\CCCC(=O)OC(CO)CO [2-AG, 2-arachidonoyl glycerol] |  |  |  |  |  |  |  |  | -12 ± 16% |  |  | EC50 ([1]; pEC50 ± SEM pERK hCB2R): 3.89 µM and > 3.16 µM; Emax [1]: 99 ± 11%; inhibition at 10 µM ([2]; Homo sapiens, HaCaT): 60%; IC50 ([2]; Homo sapiens, HaCaT): > 5 µM; Emax [4]: 94 ± 1%; Ki [5, 7]: 0.0295 µM |
| CN1CCCC[C@@H]1Cn1cc(C(=O)c2cc([N+](=O)[O-])ccc2I)c2ccccc21 [(R)-AM1241] | 75 ± 9 | 7.84 ± 0.29 |  | > 5 µM | 10 ± 12% | 65 ± 2 | 8.76 ± 0.18 | 7.59 ± 0.11 |  | 25% |  | CB2R Selectivity pERK ([1]; 10^(pEC50 CB2R-pEC50 CB1R)): 151 fold; CB2R Selectivity cAMP (human) ([4]; 10^(pEC50 CB2R-pEC50 CB1R)): 391 fold; CB2R Selectivity (binding, mouse) ([5]; 10^(pKi CB2R-pKi CB1R)): 17 fold |
| CN1CCCC[C@H]1Cn1cc(C(=O)c2cc([N+](=O)[O-])ccc2I)c2ccccc21 [(S)-AM1241] | 60 ± 11 | 6.92 ± 0.22 | 90% | 4.49 µM | 9 ± 9% | 78 ± 1 | 7.40 ± 0.11 | 6.74 ± 0.2 |  |  | 93% | CB2R Selectivity (binding, mouse) ([5]; 10^(pKi CB2R-pKi CB1R)): 2 fold |
| Cc1c(C(=O)NN2CCCCC2)nn(-c2ccc(Cl)cc2Cl)c1-c1ccc(I)cc1 [AM251] | -90 ± 3 |  |  |  | 17 ± 6% | -175 ± 19 |  |  |  |  | 28% |  |
| COc1ccc(C(=O)c2c(C)n(CCN3CCOCC3)c3cc(I)ccc23)cc1 [AM630] | -92 ± 4 | 5.09 ± 0.06 | 65% | 4.18 µM | 6 ± 12% | -152 ± 13 | 7.56 ± 0.05 | 7.66 ± 0.23 |  |  | 65% |  |
| CCCCC/C=C\C/C=C\C/C=C\C/C=C\CCCC(=O)NCCO [Anandamide, N-arachidonoylethanolamine] |  |  | 86% |  |  |  |  |  | 32 ± 22% |  |  | Emax [1]: 62 ± 2%; IC50 ([2]; Homo sapiens, HaCaT): 0.27 µM; Emax [4]: 87 ± 7%; Ki [5]: 0.347 µM |
| CCCCCCC(C)(C)c1ccc([C@@H]2C[C@H](O)CC[C@H]2CCCO)c(O)c1 [CP55940] |  |  |  |  |  |  |  |  | 20 ± 16% |  |  | inhibition at 10 µM ([2]; Homo sapiens, HaCaT): 13%; IC50 ([2]; Homo sapiens, HaCaT): > 10 µM; inhibition at 10 µM ([6]; 10 µM): 96%; Ki [5, 7]: 0.000603 µM |
| Cc1ccc2c(c1)Cc1c(C(=O)NN3CCCCC3)nn(-c3ccc(Cl)cc3Cl)c1-2 [Gp-1a] |  |  | 90% | 3.27 µM |  |  |  | 7.68 ± 0.23 |  |  | 29% | Emax ± SEM pERK hCB2R ([1]; normalized to 10 µM CP55940): 5 ± 6%; pEC50 ± SEM cAMP hCB2R [4, 8]: 7.52 ± 0.14; Emax ± SEM cAMP hCB2R ([4]; normalized to 10 µM CP55940): -85 ± 10%; CB2R Selectivity (binding, mouse) ([5]; 10^(pKi CB2R-pKi CB1R)): 20 fold |
| CCCCCCC(C)(C)c1cc(OC)c([C@@H]2C=C(CO)[C@@H]3C[C@H]2C3(C)C)c(OC)c1 [HU308] |  |  | 69% |  |  |  |  |  | 42 ± 3% |  |  | Emax [1]: 93 ± 2%; IC50 ([2]; Homo sapiens, HaCaT): 2.21 µM; Emax [4]: 98 ± 1%; inhibition at 10 µM [6]: 28%; Ki [5]: 0.0708 µM |
| CCCCCCC(C)(C)c1cc(OC)c(C2=C[C@H]3CC[C@]2(CO)C3(C)C)c(OC)c1 [HU910] |  |  |  | > 10 µM | 36 ± 1% |  |  | 6.88 ± 0.17 |  | 38% | 87% | pEC50 ± SEM pERK hCB2R [1, 8]: 5.50 ± 0.10 and < 5.5; Emax ± SEM pERK hCB2R ([1]; normalized to 10 µM CP55940): 104 ± 9%; pEC50 ± SEM cAMP hCB2R [4, 8]: 8.41 ± 0.13; Emax ± SEM cAMP hCB2R ([4]; normalized to 10 µM CP55940): 98 ± 1% |
| CCCn1c(C)c(C(=O)c2cccc3ccccc23)c2ccccc21 [JWH015] |  |  |  | > 5 µM | -8 ± 5% |  |  | 6.63 ± 0.21 |  | 64% | 94% |  |
| CCCC(C)(C)c1ccc2c(c1)OC(C)(C)[C@@H]1CC=C(C)C[C@@H]21 [JWH133] | 96 ± 13 | 6.19 ± 0.07 |  | > 10 µM | 30 ± 7% | 98 ± 1 | 8.38 ± 0.09 | 7.69 ± 0.23 |  | 39% | 3% | CB2R Selectivity (binding, mouse) [5]: 40 fold |
| Cc1c(C(=O)NN2CCCCC2)nn(-c2ccc(Cl)cc2Cl)c1-c1ccc(Cl)cc1 [SR141716A] |  |  | 80% |  |  |  |  |  | 20 ± 10% |  |  | inhibition at 10 µM ([6]; 10 µM): 16% |
| Cc1c(C(=O)c2cccc3ccccc23)c2cccc3c2n1[C@H](CN1CCOCC1)CO3 [WIN55212-2] |  |  |  | > 5 µM | -9 ± 12% |  |  | 7.28 ± 0.17 |  | 24% | 70% |  |
| SR144528 |  |  |  | > 10 µM | -28 ± 11% |  |  |  |  | 20% | 22% | Emax ± SEM pERK hCB2R ([1]; normalized to 10 µM CP55940): -99 ± 3%; Emax ± SEM cAMP hCB2R ([4]; normalized to 10 µM CP55940): -151 ± 10% |
